Experiments:
Experiment in all cases: relative viability (nuclei count vs DMSO), 5 days (fraction); higher = more cells survive
Ruxolitinib + Tozasertib = compound: N#CC[C@H](C1CCCC1)n1cc(-c2ncnc3[nH]ccc23)cn1 [Ruxolitinib] + Cc1cc(Nc2cc(N3CCN(C)CC3)nc(Sc3ccc(NC(=O)C4CC4)cc3)n2)n[nH]1 [Tozasertib] (partner 0.1 µM)
How it was run: (§1)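 The day after seeding in 1536-well plates, lung cancer cell lines were treated by pin tool with a single drug, or with a fixed anchor-drug dose together with five library-drug doses (not always all listed) in √10 steps. After 5 days, a combined fix-and-stain solution (final 0.05% Triton X-100, 1% formaldehyde, 1 ug/ml Hoechst) was added. Nuclei counted on 4× images gave relative viability as treated counts over vehicle counts, reported as the median of duplicate plates.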

Vismodegib + Pemetrexed = compound: CS(=O)(=O)c1ccc(C(=O)Nc2ccc(Cl)c(-c3ccccn3)c2)c(Cl)c1 [Vismodegib] + Nc1nc2[nH]cc(CCc3ccc(C(=O)N[C@@H](CCC(=O)O)C(=O)O)cc3)c2c(=O)[nH]1 [Pemetrexed] (partner 0.2 µM)
How it was run: as §1

Ruxolitinib + Lapatinib = compound: N#CC[C@H](C1CCCC1)n1cc(-c2ncnc3[nH]ccc23)cn1 [Ruxolitinib] + CS(=O)(=O)CCNCc1ccc(-c2ccc3ncnc(Nc4ccc(OCc5cccc(F)c5)c(Cl)c4)c3c2)o1 [Lapatinib] (partner 2 µM)
How it was run: as §1

Ruxolitinib + Bortezomib = compound: N#CC[C@H](C1CCCC1)n1cc(-c2ncnc3[nH]ccc23)cn1 [Ruxolitinib] + CC(C)C[C@H](NC(=O)[C@H](Cc1ccccc1)NC(=O)c1cnccn1)B(O)O [Bortezomib] (partner 0.002 µM)
How it was run: as §1

In the case of SK-MES-1, the relative viability (Ruxolitinib + Tozasertib; first compound 0.08 µM) is reported as 1.01, the relative viability (Ruxolitinib + Tozasertib; first compound 0.253 µM) is reported as 0.873 and the relative viability (Ruxolitinib + Tozasertib; first compound 0.8 µM) is reported as 0.906. The relative viability (Ruxolitinib + Tozasertib; first compound 2.53 µM) was 0.768, the relative viability (Ruxolitinib + Tozasertib; first compound 8 µM) was 0.735 and the relative viability (Vismodegib + Pemetrexed; first compound 0.08 µM) was 0.853. The relative viability (Vismodegib + Pemetrexed; first compound 0.253 µM) was 0.928, the relative viability (Vismodegib + Pemetrexed; first compound 0.8 µM) was 0.871 and the relative viability (Vismodegib + Pemetrexed; first compound 2.53 µM) was 0.972. The relative viability (Vismodegib + Pemetrexed; first compound 8 µM) was 0.825, the relative viability (Ruxolitinib + Lapatinib; first compound 0.08 µM) was 0.493 and the relative viability (Ruxolitinib + Lapatinib; first compound 0.253 µM) was 0.412. It also gave a relative viability (Ruxolitinib + Lapatinib; first compound 0.8 µM) of 0.448, a relative viability (Ruxolitinib + Lapatinib; first compound 2.53 µM) of 0.474 and a relative viability (Ruxolitinib + Lapatinib; first compound 8 µM) of 0.42.

Cell Line LK-2 has a relative viability (Ruxolitinib + Tozasertib; first compound 0.08 µM) of 0.162, a relative viability (Ruxolitinib + Tozasertib; first compound 0.253 µM) of 0.199 and a relative viability (Ruxolitinib + Tozasertib; first compound 0.8 µM) of 0.168. For the same cell line, the relative viability (Ruxolitinib + Tozasertib; first compound 2.53 µM) was 0.166, the relative viability (Ruxolitinib + Tozasertib; first compound 8 µM) was 0.171 and the relative viability (Vismodegib + Pemetrexed; first compound 0.08 µM) was 0.248. The relative viability (Vismodegib + Pemetrexed; first compound 0.253 µM) was 0.255, the relative viability (Vismodegib + Pemetrexed; first compound 0.8 µM) was 0.307 and the relative viability (Vismodegib + Pemetrexed; first compound 2.53 µM) was 0.238. It also gave a relative viability (Vismodegib + Pemetrexed; first compound 8 µM) of 0.266, a relative viability (Ruxolitinib + Lapatinib; first compound 0.253 µM) of 0.893 and a relative viability (Ruxolitinib + Lapatinib; first compound 0.8 µM) of 1.23. The relative viability (Ruxolitinib + Lapatinib; first compound 2.53 µM) was 0.997 and the relative viability (Ruxolitinib + Lapatinib; first compound 8 µM) was 0.964.

Cell Line NCI-H441 has a relative viability (Ruxolitinib + Tozasertib; first compound 0.08 µM) of 0.63, a relative viability (Ruxolitinib + Tozasertib; first compound 0.253 µM) of 0.629 and a relative viability (Ruxolitinib + Tozasertib; first compound 0.8 µM) of 0.716. The relative viability (Ruxolitinib + Tozasertib; first compound 2.53 µM) was 0.625, the relative viability (Ruxolitinib + Tozasertib; first compound 8 µM) was 0.587 and the relative viability (Vismodegib + Pemetrexed; first compound 0.08 µM) was 0.247. For the same cell line, the relative viability (Vismodegib + Pemetrexed; first compound 0.8 µM) was 0.246, the relative viability (Vismodegib + Pemetrexed; first compound 2.53 µM) was 0.247 and the relative viability (Vismodegib + Pemetrexed; first compound 8 µM) was 0.283. The relative viability (Ruxolitinib + Bortezomib; first compound 0.08 µM) was 0.545, the relative viability (Ruxolitinib + Bortezomib; first compound 0.253 µM) was 0.448 and the relative viability (Ruxolitinib + Bortezomib; first compound 0.8 µM) was 0.557. It also gave a relative viability (Ruxolitinib + Bortezomib; first compound 2.53 µM) of 0.456 and a relative viability (Ruxolitinib + Bortezomib; first compound 8 µM) of 0.397.

Cell Line NCI-H2170 has a relative viability (Ruxolitinib + Tozasertib; first compound 0.08 µM) of 0.804, a relative viability (Ruxolitinib + Tozasertib; first compound 0.253 µM) of 0.689 and a relative viability (Ruxolitinib + Tozasertib; first compound 0.8 µM) of 0.768. It also gave a relative viability (Ruxolitinib + Tozasertib; first compound 2.53 µM) of 0.77, a relative viability (Ruxolitinib + Tozasertib; first compound 8 µM) of 0.6 and a relative viability (Vismodegib + Pemetrexed; first compound 0.08 µM) of 0.254. It also gave a relative viability (Vismodegib + Pemetrexed; first compound 0.253 µM) of 0.272, a relative viability (Vismodegib + Pemetrexed; first compound 0.8 µM) of 0.304 and a relative viability (Vismodegib + Pemetrexed; first compound 2.53 µM) of 0.253. The relative viability (Vismodegib + Pemetrexed; first compound 8 µM) was 0.284, the relative viability (Ruxolitinib + Lapatinib; first compound 0.08 µM) was 0.303 and the relative viability (Ruxolitinib + Lapatinib; first compound 0.253 µM) was 0.253. The relative viability (Ruxolitinib + Lapatinib; first compound 0.8 µM) was 0.302, the relative viability (Ruxolitinib + Lapatinib; first compound 2.53 µM) was 0.276 and the relative viability (Ruxolitinib + Lapatinib; first compound 8 µM) was 0.301.

Work on NCI-H1623 yielded a relative viability (Ruxolitinib + Tozasertib; first compound 0.08 µM) of 0.488, a relative viability (Ruxolitinib + Tozasertib; first compound 0.253 µM) of 0.485 and a relative viability (Ruxolitinib + Tozasertib; first compound 0.8 µM) of 0.49. It also gave a relative viability (Ruxolitinib + Tozasertib; first compound 2.53 µM) of 0.49 and a relative viability (Ruxolitinib + Tozasertib; first compound 8 µM) of 0.479.

Cell Line ABC-1 has a relative viability (Ruxolitinib + Tozasertib; first compound 0.253 µM) of 0.222, a relative viability (Ruxolitinib + Tozasertib; first compound 0.8 µM) of 0.155 and a relative viability (Ruxolitinib + Tozasertib; first compound 2.53 µM) of 0.202. The relative viability (Ruxolitinib + Tozasertib; first compound 8 µM) was 0.201, the relative viability (Ruxolitinib + Bortezomib; first compound 0.08 µM) was 0.324 and the relative viability (Ruxolitinib + Bortezomib; first compound 0.253 µM) was 0.303. The relative viability (Ruxolitinib + Bortezomib; first compound 0.8 µM) was 0.325, the relative viability (Ruxolitinib + Bortezomib; first compound 2.53 µM) was 0.284 and the relative viability (Ruxolitinib + Bortezomib; first compound 8 µM) was 0.285. For the same cell line, the relative viability (Ruxolitinib + Lapatinib; first compound 0.08 µM) was 1.19, the relative viability (Ruxolitinib + Lapatinib; first compound 0.253 µM) was 1.19 and the relative viability (Ruxolitinib + Lapatinib; first compound 0.8 µM) was 1.4. The relative viability (Ruxolitinib + Lapatinib; first compound 2.53 µM) was 1.11 and the relative viability (Ruxolitinib + Lapatinib; first compound 8 µM) was 1.17.

NCI-H727 showed a relative viability (Ruxolitinib + Tozasertib; first compound 0.08 µM) of 0.663, a relative viability (Ruxolitinib + Tozasertib; first compound 0.253 µM) of 0.818 and a relative viability (Ruxolitinib + Tozasertib; first compound 0.8 µM) of 0.674. The relative viability (Ruxolitinib + Tozasertib; first compound 2.53 µM) was 0.567, the relative viability (Ruxolitinib + Tozasertib; first compound 8 µM) was 0.589 and the relative viability (Ruxolitinib + Bortezomib; first compound 0.08 µM) was 0.997. It also gave a relative viability (Ruxolitinib + Bortezomib; first compound 0.253 µM) of 0.845, a relative viability (Ruxolitinib + Bortezomib; first compound 0.8 µM) of 1.14 and a relative viability (Ruxolitinib + Bortezomib; first compound 2.53 µM) of 0.941. For the same cell line, the relative viability (Ruxolitinib + Bortezomib; first compound 8 µM) was 1.07, the relative viability (Ruxolitinib + Lapatinib; first compound 0.08 µM) was 0.904 and the relative viability (Ruxolitinib + Lapatinib; first compound 0.253 µM) was 1.03. The relative viability (Ruxolitinib + Lapatinib; first compound 0.8 µM) was 1.09, the relative viability (Ruxolitinib + Lapatinib; first compound 2.53 µM) was 0.777 and the relative viability (Ruxolitinib + Lapatinib; first compound 8 µM) was 0.821.

For NCI-H1563, the relative viability (Vismodegib + Pemetrexed; first compound 0.08 µM) was 0.458, the relative viability (Vismodegib + Pemetrexed; first compound 0.253 µM) was 0.806 and the relative viability (Vismodegib + Pemetrexed; first compound 0.8 µM) was 0.767. The relative viability (Vismodegib + Pemetrexed; first compound 2.53 µM) was 0.762, the relative viability (Vismodegib + Pemetrexed; first compound 8 µM) was 0.839 and the relative viability (Ruxolitinib + Bortezomib; first compound 0.08 µM) was 0.992. The relative viability (Ruxolitinib + Bortezomib; first compound 0.253 µM) was 0.867, the relative viability (Ruxolitinib + Bortezomib; first compound 0.8 µM) was 0.97 and the relative viability (Ruxolitinib + Bortezomib; first compound 2.53 µM) was 0.833. The relative viability (Ruxolitinib + Bortezomib; first compound 8 µM) was 0.788, the relative viability (Ruxolitinib + Lapatinib; first compound 0.08 µM) was 1.07 and the relative viability (Ruxolitinib + Lapatinib; first compound 0.253 µM) was 0.85. The relative viability (Ruxolitinib + Lapatinib; first compound 0.8 µM) was 0.979, the relative viability (Ruxolitinib + Lapatinib; first compound 2.53 µM) was 0.903 and the relative viability (Ruxolitinib + Lapatinib; first compound 8 µM) was 0.774.

LCLC-103H was tested, and the relative viability (Ruxolitinib + Tozasertib; first compound 0.08 µM) was 0.492, the relative viability (Ruxolitinib + Tozasertib; first compound 0.253 µM) was 0.519 and the relative viability (Ruxolitinib + Tozasertib; first compound 0.8 µM) was 0.595. The relative viability (Ruxolitinib + Tozasertib; first compound 2.53 µM) was 0.552, the relative viability (Ruxolitinib + Tozasertib; first compound 8 µM) was 0.501 and the relative viability (Vismodegib + Pemetrexed; first compound 0.08 µM) was 0.431. It also gave a relative viability (Vismodegib + Pemetrexed; first compound 0.253 µM) of 0.552, a relative viability (Vismodegib + Pemetrexed; first compound 0.8 µM) of 0.474 and a relative viability (Vismodegib + Pemetrexed; first compound 2.53 µM) of 0.473. The relative viability (Vismodegib + Pemetrexed; first compound 8 µM) was 0.481, the relative viability (Ruxolitinib + Bortezomib; first compound 0.08 µM) was 0.922 and the relative viability (Ruxolitinib + Bortezomib; first compound 0.253 µM) was 1.17. The relative viability (Ruxolitinib + Bortezomib; first compound 0.8 µM) was 1.04, the relative viability (Ruxolitinib + Bortezomib; first compound 2.53 µM) was 1.15 and the relative viability (Ruxolitinib + Bortezomib; first compound 8 µM) was 0.951.

Work on SW 900 yielded a relative viability (Ruxolitinib + Tozasertib; first compound 0.08 µM) of 0.581, a relative viability (Ruxolitinib + Tozasertib; first compound 0.253 µM) of 0.649 and a relative viability (Ruxolitinib + Tozasertib; first compound 0.8 µM) of 0.499. For the same cell line, the relative viability (Ruxolitinib + Tozasertib; first compound 2.53 µM) was 0.534, the relative viability (Ruxolitinib + Tozasertib; first compound 8 µM) was 0.625 and the relative viability (Vismodegib + Pemetrexed; first compound 0.08 µM) was 0.496. For the same cell line, the relative viability (Vismodegib + Pemetrexed; first compound 0.253 µM) was 0.472, the relative viability (Vismodegib + Pemetrexed; first compound 0.8 µM) was 0.495 and the relative viability (Vismodegib + Pemetrexed; first compound 8 µM) was 0.496.

Work on NCI-H1703 yielded a relative viability (Ruxolitinib + Bortezomib; first compound 0.08 µM) of 0.412, a relative viability (Ruxolitinib + Bortezomib; first compound 0.253 µM) of 0.38 and a relative viability (Ruxolitinib + Bortezomib; first compound 0.8 µM) of 0.346. The relative viability (Ruxolitinib + Bortezomib; first compound 2.53 µM) was 0.338, the relative viability (Ruxolitinib + Bortezomib; first compound 8 µM) was 0.245 and the relative viability (Ruxolitinib + Lapatinib; first compound 0.08 µM) was 0.999. The relative viability (Ruxolitinib + Lapatinib; first compound 0.253 µM) was 1.01, the relative viability (Ruxolitinib + Lapatinib; first compound 0.8 µM) was 1.12 and the relative viability (Ruxolitinib + Lapatinib; first compound 2.53 µM) was 0.738. For the same cell line, the relative viability (Ruxolitinib + Lapatinib; first compound 8 µM) was 0.64.
